Source: patent publication US9987299B2, “Methods of improving RNAi in well-differentiated airway epithelia” (University of Iowa Research Foundation, priority 2014, dated 2018)

How the values were obtained:
[1] = test system: CFTR channel activity; test: Transepithelial short-circuit current and conductance in HAE; type: cell-based, human; conditions: control epithelia with or without PAF, or PAF and NC1 treated cells; sequential addition of agents
[2] = test system: CFTR protein; test: CFTR protein levels, immunoprecipitation and immunoblot with densitometry in HAE; type: cell-based, human
Description: (§1) FIG. 4. […] Alternatively, spiperone was applied apically and basolaterally to well-differentiated HAE for 6 hours, and then removed by rinsing before incubation for 4 hours with CFTR-targeting or NC1 DsiRNAs complexed with Transductin. In both cases, 24 hours after transfection, and RNA levels quantified by RT-qPCR. (b) A representative immunoblot from similarly treated wells, but cells were lysed and proteins visualized after immunoprecipitation with anti-CFTR antibody. Alpha-tubulin was used as a loading control. (c) Densitometry readings of immunoblots with results normalized to NC1 treated samples. In all cases, data are from 3 biological replicates and are mean±SD. ***p<0.001, **p<0.01 (Student's t-test).
HAE were rinsed with PBS and lysed in RIPA buffer (1% NP-40, 0.5% sodium deoxycholate, 0.1% SDS, 50 mM Tris, protease inhibitors [complete; mini, EDTA-free; Roche Biochemicals, Indianapolis, Ind.]) for 30 minutes at 4° C. The lysate were centrifuged in a table top centrifuge at 14,000 rpm for 20 minutes at 4° C. The supernatant was quantified by BCA protein assay kit (Pierce, Rockford, Ill.). Thirty micrograms of protein per lane was separated on a 10% Tris-HCL Criterion precast gel (Bio-Rad, Hercules, Calif.) for western blot analysis. The protein was transferred to Polyvinylidene difluoride membrane and then was probed with goat anti-RSV antibody purchased from Meridian Life Sciences (Memphis, Tenn.). The membrane was imaged, and then stripped with Restore Western Blot Stripping Buffer (Thermo Scientific, Lafayette, Colo.) for 15 minutes. The membrane was rinsed with Tris-buffered saline-Tween (TBS-T) and blocked in 5% bovine serum albumin (Research Products International Corp, Mt. Prospect, Ill.). The membrane was then reprobed with α-tubulin (Sigma-Aldrich).

[3] = test system: Human HPRT mRNA; test: HPRT mRNA silencing by DsiRNA-Transductin in well-differentiated HAE (RT-qPCR); type: cell-based
Description: FIG. 1. […] (a) Well-differentiated HAE cultures grown at the ALI were incubated in adding HPRT-targeting or control NC1 DsiRNA (250 nM) formulated with Transductin containing 0.1 or 0.01 mg LOS (HPRT-targeting DsiRNAs) or 0.1 mg LOS (NC1 DsiRNA). After 4 hours, the apical surface was rinsed and 24 hours later, target RNA levels quantified by RT-qPCR. All mRNA levels were normalized to NC1-treated samples. Mean levels were calculated from three biological replicates, each done in triplicate. ***p<0.001, **p<0.01 (Student's t-test). […] Samples were normalized to NC1-treated cells. ***p<0.001, **p<0.01 (Student's t-test). […] PAFRa was present throughout transfection in cells pre-treated with the reagent. Cells were harvested and RNA quantified 24 hrs later. Samples were normalized to NC1-treated cells. **p<0.01 (Student's t-test).
FIG. 3. Spiperone improves RNAi responses in DsiRNA transduced cells. HAE were pre-treated with various small molecules at the concentration indicated. The drugs were added to the apical surface and the basolateral media for 6 hours. Both surfaces were then washed and HPRT or NC1 DsiRNA formulated with Transductin added to the apical surface. The cells were washed after 4 hours, and RT-qPCR done on cell lysates harvested 24 hours later.
Human airway epithelial cells were obtained from trachea and bronchi of lungs removed for organ donation from non-CF individuals. Cells were isolated by enzyme digestion as previously described. Following enzymatic dispersion, cells were seeded at a density of 5×10^5 cells/cm^2 onto collagen-coated, 0.6 cm^2 semi permeable membrane filters (Millipore polycarbonate filters; Millipore Corp., Bedford, Mass.). The cells were maintained at 37° C. in a humidified atmosphere of 5% CO2 air. Twenty-four hours after plating, the apical media was removed and the cells were maintained at an air-liquid interface (ALI) to allow differentiation of the epithelium. The culture medium consisted of 1:1 ratio mix of Dulbecco's modified Eagle's medium (DMEM)/Ham's F12, 5% Ultroser G (Biosepra S A, Cedex, France), 100 U/ml penicillin, 100 μg/ml streptomycin, 1% nonessential amino acids and 0.12 U/ml insulin. Studies were performed on well-differentiated epithelia approximately 4 to 6 weeks after initiation of the ALI cultures conditions. HEp-2 cells were maintained in MEM substituted with 10% fetal bovine serum and 100 U/ml penicillin.
PAF was purchased from Sigma-Aldrich. The reagent was reconstituted in ethanol and used in the experiment at a concentration of 200 nM or as described in the figures. PAF was added to the transfection mixture at the apical surface as well as to the basolateral media. PAFRa (WEB 2086) was purchased from Sigma-Aldrich. […] The reagent was incubated with the cells throughout the transfection period.
All the small molecules tested were purchased from Sigma-Aldrich. The chemicals were reconstituted in appropriate solutions as recommended by the manufacturer. The epithelia were pre-treated with drugs for 6 hours at concentrations used in the CMAP study or noted in the published literature. Following drug treatment, the epithelia were transduced with DsiRNA as described above.
For well-differentiated airway epithelia, transfection was performed mostly according to the manufacturer's protocol. In all cases, the apical surface of epithelia was rinsed twice with PBS before adding the transfection mixture to the apical surface. DsiRNAs were used at a concentration of 250 nM. The mixture was left on the cells for 4 hours after which the medium was removed, the apical surface rinsed with PBS and the cells incubated further for 24 hours. For all experiments, a minimum of 3 biological replicates, in triplicate, were done.
Total RNA was isolated using SV96 RNA isolation kit (Promega, Madison, Wis.), according to manufacturer's protocol. […]

[4] = test system: Human CFTR mRNA; test: CFTR mRNA silencing by CFTR DsiRNA-Transductin in well-differentiated HAE (RT-qPCR); type: cell-based; conditions: CFTR DsiRNA with simultaneous PAF treatment or spiperone pre-treatment
Description: as §1
For well-differentiated airway epithelia, transfection was performed mostly according to the manufacturer's protocol. […]
Total RNA was isolated using SV96 RNA isolation kit (Promega, Madison, Wis.), according to manufacturer's protocol. […] One-fifteenth of the cDNA was then amplified and analyzed by using the 5′-nuclease assay in a 7900 Real Time PCR System (Applied Biosystems, Foster city, CA) using primer-probe pairs reaction buffer and Immolase DNA polymerase (Bioline, Taunton, Mass.). […] Absolute quantification of an mRNA target sequence within an unknown sample was determined by reference to a standard curve. […]

[5] = reference [38]; cited from earlier work
[6] = test system: Human HPRT mRNA; conditions: Transductin alone or combined with enhancers of macropinocytosis; reference [17]; cited from earlier work

Q: With O=C(CNc1ccc2ccccc2c1)N/N=C/c1cc(Br)c(O)c(Br)c1O [GlyH-101] as the compound, how does the “cAMP-activated transepithelial short-circuit current (Isc and ΔIsc) and conductance (Gt)” value [1] read?
A: decreased both values

Q: For O=C(CCCN1CCC2(CC1)C(=O)NCN2c1ccccc1)c1ccc(F)cc1 [Spiperone], which “CFTR protein levels compared to controls” value ([2]; PAF or spiperone and CFTR DsiRNA-Transductin, immunoprecipitation, western blot) is on record?
A: reduced CFTR protein levels

Q: What about the “fully glycosylated CFTR band C” value ([2]; densitometry, normalized to NC1 treated samples) of the same compound?
A: significantly decreased

Q: What about the “spiperone dose-response on silencing” value ([3]; increasing doses, 6 hours pretreatment (FIG. 9)) of the same compound?
A: marginal increases in silencing with increasing doses

Q: And the “silencing of HPRT mRNA levels” value ([3]; spiperone 10 μM pretreatment before DsiRNA transduction)?
A: 25%

Q: And the “silencing of CFTR mRNA levels” value [4]?
A: approximately 30%

Q: With Cc1nnc2n1-c1sc(CCC(=O)N3CCOCC3)cc1C(c1ccccc1Cl)=NC2 [WEB2086] as the compound, how does the “inhibition of HPRT silencing in cells transduced with LOS or PAF” value ([3]; 1 μM PAFRa) read?
A: partially inhibited

Q: What about the “inhibition of HPRT silencing of LOS- or PAF-assisted transduction” value ([3]; 100 μM PAFRa, pre- or post-treatment) of the same compound?
A: completely inhibited

Q: Which “cAMP-activated transepithelial short-circuit current (Isc and ΔIsc) and conductance (Gt)” value [1] does the source give for CC(C)Cn1c(=O)n(C)c(=O)c2[nH]cnc21 [isobutylmethylxantine (IBMX), isobutylmethylxantine] here?
A: increased

Q: What does the source list for CCCCCCCCCCCCCC(=O)O[C@@H]1[C@@H](C)[C@@]2(O)[C@@H](C=C(CO)C[C@]3(O)C(=O)C(C)=C[C@@H]23)[C@@H]2C(C)(C)[C@]12OC(C)=O [phorbol ester]?
A: toxicity [5]: toxic and unsuitable for repeated applications or use in vivo; gene silencing in well differentiated HAE with Transductin-DsiRNA plus phorbol ester ([3]; applicant's unpublished data): better silencing

Q: With “epidermal growth factor (NSDSECPLSHDGYCLHDGVCMYIEALDKYACNCVVGYIGERCQYRDLKWWELR; Epidermal growth factor; UniProt P01133 971-1023, looked up) [EGF, enhancer of macropinocytosis]” as the compound, how does the “gene silencing in well differentiated HAE with Transductin-DsiRNA, previously observed” value [6] read?
A: very modest knockdown
